Several values for one entry are separate records, joined by “and”; a condition that tells them apart may be missing. Equal values may be shown once. Read-outs that look alike come from different tables or passages of the source.
Key:
Assay type in all cases: in vivo, Mouse (ICR:CD-1)
[1] = test system: PTZ mouse model of seizures; test: PTZ-induced seizures study; details: for Protection from clonic seizures (PTZ) vs vehicle / Protection from tonic hindlimb seizures (PTZ) vs vehicle: 200 mg/kg IP, PTZ 100 mg/kg i.p.
Description: Route(s) of administration: Intraperitoneal (i.p.) and per oral (p.o.) (Diazepam)
(§1) Vehicle for the test compounds: 1:1:18 ethanol:cremophor (Kolliphor) EL:0.9% saline
Vehicle for diazepam: 0.5% MC, 0.1% Tween 80 in water
Interval between dose and evaluation: 30 min for test articles and diazepam, 60 min for CBD
Mice were acclimated to the procedure room for at least 30 minutes. Pentylenetetrazole (PTZ; SigmaAldrich) was formulated in water to a concentration of 20 mg/ml. Injections of PTZ were made at a volume of 5 ml/kg to produce a final dose of 100 mg/kg. PTZ injections were i.p. Diazepam was formulated at a concentration of 2 mg/ml and administered at volume of 10 ml/kg to produce a final dose of 20 mg/kg. Time to initial myoclonic and tonic hindlimb extensor response was measured. A 10-min maximum latency to seizure was imposed.
(§2) The data was expressed as mean+SEM. Statistical analysis using one-way ANOVA with post-hoc Fisher's LSD test was used to determine statistical significance compared to the vehicle-treated animals.

[2] = test system: MES mouse model of seizures; test: Maximal Electroshock (MES) seizure study; details: for Effect in MES study (latency to tonic hindlimb seizure) vs vehicle: 200 mg/kg IP
Description: Route(s) of administration: Intraperitoneal (i.p.) and per oral (p.o.)
as §1
Vehicle for phenytoin: 0.5% MC in water
Dose Levels: 100-200 mg/kg (Table 2), Phenytoin 60 mg/kg
Interval between dose and evaluation: 30 min for test articles and phenytoin, 60 min for CBD
Animals were administered vehicle, phenytoin, CBD or test compounds and gross behavioural observations were done for 30 minutes. Proparacaine hydrochloride ophthalmic solution (Butler AHS, Dublin, Ohio) was applied approximately 10 minutes prior to testing to numb the eyes. Thirty to sixty minutes after administration of vehicle, phenytoin, CBD or test compounds, 0.9% saline solution (sodium chloride in water) was applied to both eyes and electro-convulsions were produced by an alternating current delivered via corneal electrodes by a Rodent Shocker generator at a frequency of 60 Hz (Harvard Apparatus, Holliston, Mass.). Parameters for the ICR:CD1 mice were 0.2 s stimulus duration at an intensity of 25 mA. The criterion for seizure occurrence were presence of a tonic hind limb extension, defined as extension exceeding a 90-degree angle with the plane of the body. […] Any seizure activity (i.e. clonic seizures defined as rapid spasms or jerky movements of the limbs) prior to tonic hind limb seizure were recorded as presence of seizure (noted as 1-yes, 0-no). After seizure exhibition or 20-second timeout, mice were euthanized via cervical dislocation.
as §2

[3] = PK study: plasma levels after i.p. administration (LC/MS/MS); details: 100 mg/kg i.p.; for Time of maximal concentration in plasma after the injection: sampling at 30, 60, 120 min; for concentration at 30 min / concentration at 60 min / concentration at 120 min: CD-1, mouse, plasma, intraperitoneal, 100 mg/kg
Description: Route(s) of administration: Intraperitoneal (i.p.)
Vehicle for the test compounds and CBD: 1:1:18 ethanol:cremophor (Kolliphor) EL:0.9% saline
IP administration: 0.5 h (30 min), 1 h, 2 h,
For testing of each compound, six CD-1 mice were divided into 2 groups of 3. Animals were administered test agents via i.p. route and blood collected at 30, 60 and 120 min, administration as outlined in Table 1. Blood samples were collected in EDTA-coated microfuge tubes, inverted and placed on an ice pack prior to centrifugation and storage at −70° C. Samples were extracted using an acetonitrile/protein precipitation method and levels of test agent analysed by LC/MS/MS.
Bioanalytical detection method was developed using an LC/MS/MS (ABI 5000 or 5500). Standard curves of the test agent were prepared in an appropriate biological matrix (plasma). Levels of test article was measured in plasma as per the developed method.
Levels were determined by extrapolating the concentration from a standard curve using linear regression analysis. Method development and bioanalysis was performed by a partner company, Keystone Bioanalytical (North Wales, Pa., US).

[4] = 30 min pretreatment, listed as (−)-trans CBD-PET
[5] = 30 min pretreatment, listed as CBD-PET
[6] = 30 min pretreatment, listed as (−)-trans CBD-PET-OH
[7] = 30 min pretreatment, listed as CBD-PET-OH

Q: Which “Protection from clonic seizures (PTZ) vs vehicle” value [1, 4] does the source give for `C=C(C)[C@@H]1CCC(C)=C[C@H]1c1c(O)cc(CCc2ccccc2)cc1O` [(−)-trans-CBD-PET, (1′R,2′R)-5′-methyl-4-phenethyl-2′-(prop-1-ene-2-yl)-1′,2′,3′,4′-tetrahydro-[1,1′-biphenyl]-2,6-diol] here?
A: significant protection

Q: What about the “Protection from tonic hindlimb seizures (PTZ) vs vehicle” value [1, 4] of the same compound?
A: significant effect

Q: And the “Protection from clonic seizures (PTZ) vs vehicle” value [1, 5]?
A: activity against both clonic and tonic seizures

Q: What about the “Protection from tonic hindlimb seizures (PTZ) vs vehicle” value [1, 5] of the same compound?
A: activity against both clonic and tonic seizures

Q: What about the “Effect in MES study (latency to tonic hindlimb seizure) vs vehicle” value (“Effect in MES study … vs vehicle” below) ([2]; 30 min pretreatment) of the same compound?
A: inactive

Q: And the “(—)-trans-CBD-PET in plasma” value ([3]; 30 min, individual animals)?
A: 3519.2 ng/mL and 3872.3 ng/mL

Q: And the “(—)-trans-CBD-PET in plasma” value ([3]; 60 min, individual animals)?
A: 2729.5 ng/mL and 1728.7 ng/mL

Q: And the “(—)-trans-CBD-PET in plasma” value ([3]; 120 min, individual animals)?
A: 2188.6 ng/mL and 770.3 ng/mL and 982.7 ng/mL

Q: And the “Time of maximal concentration in plasma after the injection” value [3]?
A: 30 min

Q: And the concentration at 30 min ([3]; 30 min, average of 3 mice, read-out: Average (ng/ml), (—)-trans-CBD-PET in plasma)?
A: 3810 ng/mL

Q: What about the concentration at 30 min ([3]; 30 min, individual animals, read-out: (—)-trans-CBD-PET in plasma) of the same compound?
A: 4030 ng/mL

Q: What about the concentration at 60 min ([3]; 60 min, average of 3 mice, read-out: Average (ng/ml), (—)-trans-CBD-PET in plasma) of the same compound?
A: 2140 ng/mL

Q: What about the concentration at 60 min ([3]; 60 min, individual animals, read-out: (—)-trans-CBD-PET in plasma) of the same compound?
A: 1960 ng/mL

Q: What about the concentration at 120 min ([3]; 120 min, average of 3 mice, read-out: Average (ng/ml), (—)-trans-CBD-PET in plasma) of the same compound?
A: 1310 ng/mL

Q: With `C=C(C)[C@@H]1CCC(C)=C[C@H]1c1c(O)cc(CCc2ccc(O)cc2)cc1O` [(−)-trans-CBD-PET-OH, (1′R,2′R)-4-(4-hydroxyphenethyl)-5′-methyl-2′-(prop-1-ene-2-yl)-1′,2′,3′,4′-tetrahydro-[1,1′-biphenyl]-2,6-diol] as the compound, how does the “Protection from tonic hindlimb seizures (PTZ) vs vehicle” value [1, 6] read?
A: significant effect

Q: And the “Protection from tonic hindlimb seizures (PTZ) vs vehicle” value [1, 7]?
A: particularly effective against tonic seizures

Q: What about the “Effect in MES study … vs vehicle” value [2, 6] of the same compound?
A: significantly different from vehicle

Q: What about the “Effect in MES study … vs vehicle” value [2, 7] of the same compound?
A: effective

Q: What about the “(—)-trans-CBD-PET-OH in plasma” value ([3]; 30 min, individual animals) of the same compound?
A: 8897.4 ng/mL and 8936.2 ng/mL

Q: What about the “(—)-trans-CBD-PET-OH in plasma” value ([3]; 60 min, individual animals) of the same compound?
A: 8877.8 ng/mL and 8055.5 ng/mL

Q: What about the “(—)-trans-CBD-PET-OH in plasma” value ([3]; 120 min, individual animals) of the same compound?
A: 2831.1 ng/mL and 3274.9 ng/mL

Q: What about the “Time of maximal concentration in plasma after the injection” value [3] of the same compound?
A: 30 min

Q: What about the concentration at 30 min ([3]; 30 min, average of 3 mice, read-out: Average (ng/ml), (—)-trans-CBD-PET-OH in plasma) of the same compound?
A: 8120 ng/mL

Q: And the concentration at 30 min ([3]; 30 min, individual animals, read-out: (—)-trans-CBD-PET-OH in plasma)?
A: 6520 ng/mL

Q: And the concentration at 60 min ([3]; 60 min, average of 3 mice, read-out: Average (ng/ml), (—)-trans-CBD-PET-OH in plasma)?
A: 7920 ng/mL

Q: And the concentration at 60 min ([3]; 60 min, individual animals, read-out: (—)-trans-CBD-PET-OH in plasma)?
A: 6840 ng/mL

Q: What about the concentration at 120 min ([3]; 120 min, average of 3 mice, read-out: Average (ng/ml), (—)-trans-CBD-PET-OH in plasma) of the same compound?
A: 3460 ng/mL

Q: And the concentration at 120 min ([3]; 120 min, individual animals, read-out: (—)-trans-CBD-PET-OH in plasma)?
A: 4290 ng/mL

Q: With `C=C(C)[C@@H]1CCC(C)=C[C@H]1c1c(O)cc(CCCCC)cc1O` [Cannabidiol, reference compound] as the compound, how does the “Effect in PTZ model vs vehicle” value ([1]; 100 mg/kg IP, 60 min prior to PTZ) read?
A: did not produce a significant effect

Q: And the “Effect in MES model vs vehicle” value ([2]; 100 mg/kg IP, 60 min prior to MES)?
A: did not produce a significant effect

Q: Which “Protection from the seizures (PTZ, clonic and tonic hindlimb)” value ([1]; 30 mg/kg PO (Table 3), 30 min pretreatment, positive control) does the source give for `CN1C(=O)CN=C(c2ccccc2)c2cc(Cl)ccc21` [diazepam, reference compound] here?
A: 100%

Q: Which “Protection from the seizures (MES)” value ([2]; 60 mg/kg PO, 30 min pretreatment, positive control) does the source give for `O=C1NC(=O)C(c2ccccc2)(c2ccccc2)N1` [phenytoin, reference compound] here?
A: 100%
